The target in one assay is T1, FLT3-ITD (Homo sapiens, UniProt P36888).
T1 construct: FLT3-ITD; Invitrogen #PV6190
T1 sequence (P36888 1-993): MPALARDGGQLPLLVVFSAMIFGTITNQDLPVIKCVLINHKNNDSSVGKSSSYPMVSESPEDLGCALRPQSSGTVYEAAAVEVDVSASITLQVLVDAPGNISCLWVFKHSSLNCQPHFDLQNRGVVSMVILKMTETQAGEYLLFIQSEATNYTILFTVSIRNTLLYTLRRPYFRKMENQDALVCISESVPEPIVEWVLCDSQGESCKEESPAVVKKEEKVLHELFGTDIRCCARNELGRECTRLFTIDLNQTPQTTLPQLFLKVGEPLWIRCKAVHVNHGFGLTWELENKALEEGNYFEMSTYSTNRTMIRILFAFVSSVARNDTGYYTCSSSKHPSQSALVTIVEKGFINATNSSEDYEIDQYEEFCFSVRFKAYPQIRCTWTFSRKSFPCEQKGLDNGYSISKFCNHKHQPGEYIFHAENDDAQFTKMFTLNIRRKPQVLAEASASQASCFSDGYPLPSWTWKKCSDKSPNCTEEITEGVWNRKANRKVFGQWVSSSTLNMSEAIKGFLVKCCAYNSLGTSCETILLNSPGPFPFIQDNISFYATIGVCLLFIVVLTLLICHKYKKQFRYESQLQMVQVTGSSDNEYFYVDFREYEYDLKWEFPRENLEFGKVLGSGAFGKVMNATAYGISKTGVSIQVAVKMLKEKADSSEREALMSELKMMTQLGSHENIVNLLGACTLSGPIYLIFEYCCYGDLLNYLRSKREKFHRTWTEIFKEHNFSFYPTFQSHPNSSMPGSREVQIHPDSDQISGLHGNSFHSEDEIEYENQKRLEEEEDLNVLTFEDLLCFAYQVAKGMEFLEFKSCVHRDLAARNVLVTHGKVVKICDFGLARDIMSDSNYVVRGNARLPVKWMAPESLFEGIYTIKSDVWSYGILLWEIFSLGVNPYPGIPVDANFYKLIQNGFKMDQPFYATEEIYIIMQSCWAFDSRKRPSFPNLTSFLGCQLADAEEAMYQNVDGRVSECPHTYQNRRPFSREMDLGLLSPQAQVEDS
Briefly: FLT3-ITD biochemical kinase assay (AlphaScreen). The procedure, abridged: (§1)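 Compounds were tested against recombinant enzyme using AlphaScreen detection of tyrosine-phosphorylated biotin-poly(Glu4-Tyr) (30 nM final). The ATP concentration differed by construct: 10 μM for D835Y, 100 μM for ITD.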

Another assay concerns the target T2, FLT3-D835Y (Homo sapiens, UniProt P36888, D835Y).
T2 construct: purchased Invitrogen PV3967
T2 sequence (P36888 27-993 D835Y): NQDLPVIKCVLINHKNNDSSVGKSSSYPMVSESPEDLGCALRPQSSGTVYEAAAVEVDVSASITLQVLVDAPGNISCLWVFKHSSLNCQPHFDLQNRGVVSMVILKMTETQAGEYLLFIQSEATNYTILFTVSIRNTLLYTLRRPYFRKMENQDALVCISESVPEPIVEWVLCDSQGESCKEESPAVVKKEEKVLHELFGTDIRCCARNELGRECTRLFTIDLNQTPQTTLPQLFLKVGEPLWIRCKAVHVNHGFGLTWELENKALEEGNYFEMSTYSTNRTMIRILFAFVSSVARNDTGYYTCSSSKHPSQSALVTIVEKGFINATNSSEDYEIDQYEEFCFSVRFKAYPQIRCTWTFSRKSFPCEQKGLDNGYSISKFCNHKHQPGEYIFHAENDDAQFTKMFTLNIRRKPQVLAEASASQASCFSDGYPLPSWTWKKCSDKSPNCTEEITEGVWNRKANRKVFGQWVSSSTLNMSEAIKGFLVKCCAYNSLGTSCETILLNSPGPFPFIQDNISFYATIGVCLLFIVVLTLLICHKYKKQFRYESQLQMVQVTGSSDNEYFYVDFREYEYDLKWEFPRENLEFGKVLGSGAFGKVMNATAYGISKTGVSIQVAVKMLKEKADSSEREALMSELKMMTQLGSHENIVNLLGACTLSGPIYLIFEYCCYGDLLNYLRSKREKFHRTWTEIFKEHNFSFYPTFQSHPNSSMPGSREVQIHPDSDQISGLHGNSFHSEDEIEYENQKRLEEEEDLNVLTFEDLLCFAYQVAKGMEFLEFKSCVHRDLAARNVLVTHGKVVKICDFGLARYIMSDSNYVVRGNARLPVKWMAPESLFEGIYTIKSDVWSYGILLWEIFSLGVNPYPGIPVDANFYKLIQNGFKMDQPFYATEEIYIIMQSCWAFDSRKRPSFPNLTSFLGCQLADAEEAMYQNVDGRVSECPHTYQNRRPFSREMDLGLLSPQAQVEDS
Briefly: FLT3-D835Y biochemical kinase assay (AlphaScreen). The procedure, abridged: as §1

The source of these data is patent US10160755B2 (Plexxikon Inc., priority 2015, dated 2018).

By IC50 is commonly meant the concentration at which inhibition is half-maximal. High values mean a need for much substance, low ones inhibition by little substance.

Each structure is given as a SMILES string.

On to `CCN1CCN(c2ccc(-c3cnc4[nH]cc(-c5ccc6ncn(C7CCCNC7)c6c5)c4n3)cc2)CC1` (stereo not drawn) [P-359, 2-[4-(4-ethylpiperazin-1-yl)phenyl]-7-[3-(3-piperidyl)benzimidazol-5-yl]-5H-pyrrolo[2,3-b]pyrazine], for which the 50% inhibitory concentration (IC50) on FLT3-ITD and against FLT3-D835Y was 0.0001 to 1 µM in each case.
`Cc1ncc(-c2cnc3[nH]cc(-c4ccc5ncn(C(C)(C)C)c5c4)c3n2)cn1` [P-289, 7-(3-tert-butylbenzimidazol-5-yl)-2-(2-methylpyrimidin-5-yl)-5H-pyrrolo[2,3-b]pyrazine]: the IC50 against FLT3-ITD and on FLT3-D835Y was 0.0001 to 1 µM throughout.
In the case of `COc1cc(-c2cnc3[nH]cc(-c4ccc5ncn(C6CCCN(S(C)(=O)=O)C6)c5c4)c3n2)ccn1` (stereo not drawn) [P-281, 2-(2-methoxy-4-pyridyl)-7-[3-(1-methylsulfonyl-3-piperidyl)benzimidazol-5-yl]-5H-pyrrolo[2,3-b]pyrazine], the IC50 against FLT3-ITD and on FLT3-D835Y was 0.0001 to 1 µM in each case.
For `CN1CCN(c2cccc(-c3cnc4[nH]cc(-c5ccc6ncn(C7CCCNC7)c6c5)c4n3)c2)CC1` (stereo not drawn) [P-332, 2-[3-(4-methylpiperazin-1-yl)phenyl]-7-[3-(3-piperidyl)benzimidazol-5-yl]-5H-pyrrolo[2,3-b]pyrazine], the IC50 at FLT3-ITD and at FLT3-D835Y was 0.0001 to 1 µM in each case.
On to `CCN1CCN(c2ccc(-c3cnc4[nH]cc(-c5ccc6ncn(C(C)(C)C)c6c5)c4n3)cc2)CC1` [P-358, 7-(3-tert-butylbenzimidazol-5-yl)-2-[4-(4-ethylpiperazin-1-yl)phenyl]-5H-pyrrolo[2,3-b]pyrazine], for which the IC50 against FLT3-ITD and at FLT3-D835Y was 0.0001 to 1 µM each time.
Regarding `CC(C)(C)n1cnc2ccc(-c3c[nH]c4ncc(-c5ccnc(N6CCCCS6(=O)=O)c5)nc34)cc21` [P-309, 2-[4-[7-(3-tert-butylbenzimidazol-5-yl)-5H-pyrrolo[2,3-b]pyrazin-2-yl]-2-pyridyl]thiazinane 1,1-dioxide], the IC50 at FLT3-ITD and on FLT3-D835Y was 0.0001 to 1 µM throughout.
`CN1CCN(c2ccc(-c3cnc4[nH]cc(-c5ccc6ncn(C7CCCNC7)c6c5)c4n3)cc2)CC1` (stereo not drawn) [P-344, 2-[4-(4-methylpiperazin-1-yl)phenyl]-7-[3-(3-piperidyl)benzimidazol-5-yl]-5H-pyrrolo[2,3-b]pyrazine]: the IC50 against FLT3-ITD and at FLT3-D835Y was 0.0001 to 1 µM each time.
On to `CC(C)(C)n1cnc2ccc(-c3c[nH]c4ncc(-c5ccnc(N6CCCS6(=O)=O)c5)nc34)cc21` [P-294, 2-[4-[7-(3-tert-butylbenzimidazol-5-yl)-5H-pyrrolo[2,3-b]pyrazin-2-yl]-2-pyridyl]-1,2-thiazolidine 1,1-dioxide], for which the IC50 against FLT3-ITD and against FLT3-D835Y was 0.0001 to 1 µM in each case.
As for `CC(C)(C)n1cnc2ccc(-c3c[nH]c4ncc(-c5ccc(N6CCOCC6)nc5)cc34)cc21` [P-322, 4-[5-[3-(3-tert-butylbenzimidazol-5-yl)-1H-pyrrolo[2,3-b]pyridin-5-yl]-2-pyridyl]morpholine], the IC50 against FLT3-ITD and against FLT3-D835Y was 0.0001 to 1 µM each time.
For the compound `CCN1CCN(c2cccc(-c3cnc4[nH]cc(-c5ccc6ncn(C7CCCNC7)c6c5)c4n3)c2)CC1` (stereo not drawn) [P-329, 2-[3-(4-ethylpiperazin-1-yl)phenyl]-7-[3-(3-piperidyl)benzimidazol-5-yl]-5H-pyrrolo[2,3-b]pyrazine], the IC50 against FLT3-ITD and at FLT3-D835Y was 0.0001 to 1 µM in each case.
Consider `CC(C)(C)n1cnc2ccc(-c3c[nH]c4ncc(-c5ccc(N6CCC(F)(F)CC6)nc5)nc34)cc21` [P-356, 7-(3-tert-butylbenzimidazol-5-yl)-2-[6-(4,4-difluoro-1-piperidyl)-3-pyridyl]-5H-pyrrolo[2,3-b]pyrazine], for which the IC50 on FLT3-ITD and against FLT3-D835Y was 0.0001 to 1 µM each time.
With `COc1cc(-c2cnc3[nH]cc(-c4ccc5ncn(C(C)(C)C)c5c4)c3c2)c(OC)nn1` [P-292, 1-tert-butyl-6-[5-(3,6-dimethoxypyridazin-4-yl)-1H-pyrrolo[2,3-b]pyridin-3-yl]benzimidazole], the IC50 against FLT3-ITD and at FLT3-D835Y was 0.0001 to 1 µM in each case.
For `CC(C)(C)n1cnc2ccc(-c3c[nH]c4ncc(-c5cnc(O)nc5)nc34)cc21` [P-363, 5-[7-(3-tert-butylbenzimidazol-5-yl)-5H-pyrrolo[2,3-b]pyrazin-2-yl]pyrimidin-2-ol], the IC50 against FLT3-ITD and against FLT3-D835Y was 0.0001 to 1 µM throughout.
Take `c1cc(-c2cnc3[nH]cc(-c4ccc5ncn(C6CCCNC6)c5c4)c3c2)cc(N2CCOCC2)c1` (stereo not drawn) [P-317, 4-[3-[3-[3-(3-piperidyl)benzimidazol-5-yl]-1H-pyrrolo[2,3-b]pyridin-5-yl]phenyl]morpholine]: the IC50 against FLT3-ITD and on FLT3-D835Y was 0.0001 to 1 µM throughout.
With `Cc1ncc(C#Cc2cnc3[nH]cc(-c4ccc5ncn(C(C)(C)C)c5c4)c3c2)cn1` [P-383, 1-tert-butyl-6-[5-[2-(2-methylpyrimidin-5-yl)ethynyl]-1H-pyrrolo[2,3-b]pyridin-3-yl]benzimidazole], the IC50 at FLT3-ITD and at FLT3-D835Y was 0.0001 to 1 µM throughout.
For the compound `COc1cnc2[nH]cc(-c3ccc4ncn(C5CCCNC5)c4c3)c2c1` (stereo not drawn) [P-079, 5-methoxy-3-[3-(3-piperidyl)benzimidazol-5-yl]-1H-pyrrolo[2,3-b]pyridine], the IC50 against FLT3-ITD and at FLT3-D835Y was 0.0001 to 1 µM in each case.
As to `CCN1CCN(c2cccc(-c3cnc4[nH]cc(-c5ccc6ncn(C(C)(C)C)c6c5)c4n3)c2)CC1` [P-330, 7-(3-tert-butylbenzimidazol-5-yl)-2-[3-(4-ethylpiperazin-1-yl)phenyl]-5H-pyrrolo[2,3-b]pyrazine], the IC50 against FLT3-ITD and against FLT3-D835Y was 0.0001 to 1 µM throughout.
`c1cc(N2CCOCC2)ncc1-c1cnc2[nH]cc(-c3ccc4ncn(C5CCCNC5)c4c3)c2n1` (stereo not drawn) [P-325, 4-[5-[7-[3-(3-piperidyl)benzimidazol-5-yl]-5H-pyrrolo[2,3-b]pyrazin-2-yl]-2-pyridyl]morpholine]: the IC50 against FLT3-ITD and on FLT3-D835Y was 0.0001 to 1 µM each time.
With `COc1cc(C#Cc2cnc3[nH]cc(-c4ccc5ncn(C(C)(C)C)c5c4)c3n2)ccn1` [P-279, 7-(1-(tert-butyl)-1H-benzo[d]imidazol-6-yl)-2-((2-methoxypyridin-4-yl)ethynyl)-5H-pyrrolo[2,3-b]pyrazine], the IC50 against FLT3-ITD and against FLT3-D835Y was 0.0001 to 1 µM in each case.
Consider `CC(C)(C)n1cnc2ccc(-c3c[nH]c4ncc(-c5ccc(N6CCCCC6)nc5)nc34)cc21` [P-347, 7-(1-(tert-butyl)-1H-benzo[d]imidazol-6-yl)-2-(6-(piperidin-1-yl)pyridin-3-yl)-5H-pyrrolo[2,3-b]pyrazine], for which the IC50 against FLT3-ITD and against FLT3-D835Y was 0.0001 to 1 µM in each case.
`CC(C)(C)n1cnc2ccc(-c3c[nH]c4ncc(-c5cccc(N6CCCS6(=O)=O)c5)cc34)cc21` [P-278, 2-[3-[3-(3-tert-butylbenzimidazol-5-yl)-1H-pyrrolo[2,3-b]pyridin-5-yl]phenyl]-1,2-thiazolidine 1,1-dioxide]: the half-inhibitory concentration (IC50) on FLT3-ITD and at FLT3-D835Y was 0.0001 to 1 µM each time.
